Assay results reported in patent US10433553B2, “Salts of N-(1,3,4-oxadiazol-2-yl) aryl carboxylic acid amides and the use of same as herbicides” (BAYER CROPSCIENCE AKTIENGESELLSCHAFT, priority 2015, dated 2019).
Where two headings read alike, the source gives them in different places.

Key:
[1] = tested on: ABUTH; assay: Pre-emergence herbicidal action against harmful plants; format: in vivo, Abutilon theophrasti; settings: scored visually after 3 weeks
Method: (§1) 1. Pre-Emergence Herbicidal Action Against Harmful Plants
(§2) Seeds of monocotyledonous and dicotyledonous weed plants and crop plants are laid out in wood-fiber pots in sandy loam and covered with soil. […] The comparative tests were conducted by way of example on some weed plants and crop plants.

[2] = tested on: ALOMY; assay: Post-emergence herbicidal action against harmful plants; format: in vivo; settings: dosage 5 g/ha, assessed visually after about 3 weeks
Method: (§3) 2. Post-Emergence Herbicidal Action Against Harmful Plants
(§4) Seeds of monocotyledonous and dicotyledonous weed and crop plants are laid out in sandy loam in wood-fiber pots, covered with soil and cultivated in a greenhouse under good growth conditions. 2 to 3 weeks after sowing, the test plants are treated at the one-leaf stage.

[3] = tested on: VERPE; assay: as above; format: in vivo; settings: dosage 5 g/ha, assessed visually after about 3 weeks
Method: as §3, §4

[4] = tested on: TRZAS; assay: Post-emergence damage to crop plants; format: in vivo; settings: dosage 5 g/ha, assessed visually after about 3 weeks
Method: as §3, §4

[5] = tested on: AMARE; assay: Post-emergence herbicidal action against harmful plants; format: in vivo, Amaranthus retroflexus; settings: dosage 5 g/ha, assessed visually after about 3 weeks
Method: as §3, §4

[6] = tested on: ALOMY; assay: Pre-emergence herbicidal action against harmful plants; format: in vivo; settings: scored visually after 3 weeks
Method: as §1, §2

[7] = tested on: CYPES; assay: as above; format: in vivo; settings: scored visually after 3 weeks
Method: as §1, §2

[8] = tested on: ZEAMX; settings: pre-emergence, scored visually after 3 weeks
Method: as §1, §2

[9] = tested on: STEME; assay: Pre-emergence herbicidal action against harmful plants; format: in vivo, Stellaria media; settings: dosage 20 g/ha, scored visually after 3 weeks
Source text: as §1

[10] = tested on: ZEAMX; assay: Post-emergence damage to crop plants; format: in vivo; settings: dosage 5 g/ha, assessed visually after about 3 weeks
Method: as §3, §4

[11] = tested on: TRZAS; assay: Pre-emergence damage to crop plants; format: in vivo; settings: dosage 20 g/ha, scored visually after 3 weeks
Source text: as §1

[12] = dosage 20 g/ha, 100% = plants have died, 0% = like control plants

## Cc1nnc(NC(=O)c2ccc(C(F)(F)F)c(S(C)(=O)=O)c2C)o1 [drawing 14]
[1]; [12]
  Activity against ABUTH: 70%

## Cc1nnc(NC(=O)c2ccc(C(F)(F)F)c(S(C)(=O)=O)c2C)o1 [drawing 54, reference compound]
[2]
  Activity against ALOMY: 60%
[3]
  Activity against VERPE: 60%

## Cc1nnc([N-]C(=O)c2ccc(C(F)(F)F)c(S(C)(=O)=O)c2C)o1.[Na+] [drawing 51]
[4]
  Damage to TRZAS: 0%
[2]
  Activity against ALOMY: 80%
[3]
  Activity against VERPE: 100%

## Cc1nnc(NC(=O)c2ccc(C(F)(F)F)c(S(C)(=O)=O)c2C)o1 [drawing 17]
[1]; [12]
  Activity against ABUTH: 100%

## Cc1nnc(NC(=O)c2ccc(C(F)(F)F)c(S(C)(=O)=O)c2C)o1 [drawing 49]
[5]
  Activity against AMARE: 60%

## Cc1nnc(NC(=O)c2ccc(C(F)(F)F)c(S(C)(=O)=O)c2C)o1 [drawing 27]
[1]; [12]
  Activity against ABUTH: 100%
[6]; dosage 20 g/ha
  Activity against ALOMY: 60%
[7]; dosage 20 g/ha
  Activity against CYPES: 60%

## Cc1nnc(NC(=O)c2ccc(C(F)(F)F)c(S(C)(=O)=O)c2C)o1 [drawing 48, reference compound]
[5]
  Activity against AMARE: 40%

## Cc1nnc(NC(=O)c2ccc(C(F)(F)F)c(S(C)(=O)=O)c2C)o1 [drawing 19]
[1]; [12]
  Activity against ABUTH: 100%

## Cc1nnc(NC(=O)c2ccc(C(F)(F)F)c(S(C)(=O)=O)c2C)o1 [drawing 21]
[1]; [12]
  Activity against ABUTH: 100%

## Cc1nnc(NC(=O)c2ccc(C(F)(F)F)c(S(C)(=O)=O)c2C)o1 [drawing 22]
[1]; [12]
  Activity against ABUTH: 70%

## Cc1nnc([N-]C(=O)c2ccc(C(F)(F)F)c([S+](C)[O-])c2Cl)o1.[Na+] (stereo not drawn)
[4]
  Damage to TRZAS: 0%
[3]
  Activity against VERPE: 70%

## Cc1nnc(NC(=O)c2ccc(C(F)(F)F)c(S(C)(=O)=O)c2C)o1 [drawing 26]
[1]; [12]
  Activity against ABUTH: 70%
[6]; dosage 20 g/ha
  Activity against ALOMY: 20%
[7]; dosage 20 g/ha
  Activity against CYPES: 40%

## CCc1nnc([N-]C(=O)c2ccc(S(=O)(=O)CC)c(C3=NOC(COC)C3)c2Cl)o1.[Na+] (stereo not drawn)
[1]; dosage 320 g/ha
  Activity against ABUTH: 90%
[6]; dosage 320 g/ha
  Activity against ALOMY: 30%
[7]; dosage 320 g/ha
  Activity against CYPES: 80%
[8]; dosage 320 g/ha
  Damage to ZEAMX: 0%

## Cc1nnc(NC(=O)c2ccc(C(F)(F)F)c(S(C)(=O)=O)c2C)o1 [drawing 12, reference compound]
[9]
  Activity against STEME: 70%

## CCc1nnc(NC(=O)c2ccc(S(=O)(=O)CC)c(C3=NOC(COC)C3)c2Cl)o1 (stereo not drawn) [drawing 37]
[1]; dosage 320 g/ha
  Activity against ABUTH: 80%
[6]; dosage 320 g/ha
  Activity against ALOMY: 20%
[7]; dosage 320 g/ha
  Activity against CYPES: 100%
[8]; dosage 320 g/ha
  Damage to ZEAMX: 10%

## Cc1nnc(NC(=O)c2ccc(C(F)(F)F)c(S(C)(=O)=O)c2C)o1 [drawing 42, reference compound]
[5]
  Activity against AMARE: 80%

## Cc1nnc(NC(=O)c2ccc(C(F)(F)F)c(S(C)(=O)=O)c2C)o1 [drawing 23]
[1]; [12]
  Activity against ABUTH: 100%
[6]; dosage 20 g/ha
  Activity against ALOMY: 70%
[7]; dosage 20 g/ha
  Activity against CYPES: 70%

## Cc1nnc(NC(=O)c2ccc(C(F)(F)F)c(S(C)(=O)=O)c2C)o1 [drawing 40, reference compound]
[5]
  Activity against AMARE: 80%

## Cc1nnc(NC(=O)c2ccc(C(F)(F)F)c(S(C)(=O)=O)c2C)o1 [drawing 44, reference compound]
[5]
  Activity against AMARE: 80%

## Cc1nnc(NC(=O)c2ccc(C(F)(F)F)c([S+](C)[O-])c2Cl)o1 (stereo not drawn) [drawing 33]
[6]; dosage 20 g/ha
  Activity against ALOMY: 60%

## Cc1nnc(NC(=O)c2ccc(C(F)(F)F)c([S+](C)[O-])c2C)o1 (stereo not drawn) [drawing 58, reference compound]
[2]
  Activity against ALOMY: 60%
[3]
  Activity against VERPE: 50%

## Cc1nnc(NC(=O)c2ccc(C(F)(F)F)c(S(C)(=O)=O)c2C)o1 [drawing 52, reference compound]
[2]
  Activity against ALOMY: 60%
[3]
  Activity against VERPE: 60%

## Cc1nnc(NC(=O)c2ccc(C(F)(F)F)c(S(C)(=O)=O)c2C)o1 [drawing 15]
[1]; [12]
  Activity against ABUTH: 100%

## Cc1nnc(NC(=O)c2ccc(C(F)(F)F)c(S(C)(=O)=O)c2C)o1 [drawing 18]
[1]; [12]
  Activity against ABUTH: 70%

## Cc1nnc(NC(=O)c2ccc(C(F)(F)F)c(S(C)(=O)=O)c2C)o1 [drawing 30]
[1]; [12]
  Activity against ABUTH: 70%
[6]; dosage 20 g/ha
  Activity against ALOMY: 20%
[7]; dosage 20 g/ha
  Activity against CYPES: 40%

## Cc1nnc([N-]C(=O)c2ccc(C(F)(F)F)c(S(C)(=O)=O)c2C)o1.[Na+] [drawing 39]
[5]
  Activity against AMARE: 100%
[10]
  Damage to ZEAMX: 0%

## Cc1nnc(NC(=O)c2ccc(C(F)(F)F)c(S(C)(=O)=O)c2C)o1 [drawing 16]
[1]; [12]
  Activity against ABUTH: 70%

## CCc1nnc(NC(=O)c2ccc(S(=O)(=O)CC)c(C3=NOC(COC)C3)c2Cl)o1 (stereo not drawn) [drawing 36]
[1]; dosage 320 g/ha
  Activity against ABUTH: 90%
[6]; dosage 320 g/ha
  Activity against ALOMY: 10%
[7]; dosage 320 g/ha
  Activity against CYPES: 80%

## Cc1nnc(NC(=O)c2ccc(C(F)(F)F)c([S+](C)[O-])c2Cl)o1 (stereo not drawn) [drawing 34]
[1]; [12]
  Activity against ABUTH: 60%
[6]; dosage 20 g/ha
  Activity against ALOMY: 20%
[7]; dosage 20 g/ha
  Activity against CYPES: 60%

## Cc1nnc(NC(=O)c2ccc(C(F)(F)F)c(S(C)(=O)=O)c2C)o1 [drawing 46, reference compound]
[5]
  Activity against AMARE: 80%

## Cc1nnc(NC(=O)c2ccc(C(F)(F)F)c(S(C)(=O)=O)c2C)o1 [drawing 8]
[1]; [12]
  Activity against ABUTH: 70%

## Cc1nnc(NC(=O)c2ccc(C(F)(F)F)c(S(C)(=O)=O)c2C)o1 [drawing 10, reference compound]
[9]
  Activity against STEME: 70%

## Cc1nnc(NC(=O)c2ccc(C(F)(F)F)c(S(C)(=O)=O)c2C)o1 [drawing 20]
[1]; [12]
  Activity against ABUTH: 70%

## Cc1nnc(NC(=O)c2ccc(C(F)(F)F)c(S(C)(=O)=O)c2C)o1 [drawing 50, reference compound]
[5]
  Activity against AMARE: 40%

## Cc1nnc(NC(=O)c2ccc(C(F)(F)F)c([S+](C)[O-])c2C)o1 (stereo not drawn) [drawing 56, reference compound]
[2]
  Activity against ALOMY: 60%
[3]
  Activity against VERPE: 50%

## Cc1nnc(NC(=O)c2ccc(C(F)(F)F)c(S(C)(=O)=O)c2C)o1 [drawing 29]
[1]; [12]
  Activity against ABUTH: 100%
[6]; dosage 20 g/ha
  Activity against ALOMY: 10%
[7]; dosage 20 g/ha
  Activity against CYPES: 70%

## Cc1nnc(NC(=O)c2ccc(C(F)(F)F)c(S(C)(=O)=O)c2C)o1 [drawing 13]
[1]; [12]
  Activity against ABUTH: 100%

## Cc1nnc(NC(=O)c2ccc(C(F)(F)F)c(S(C)(=O)=O)c2C)o1 [drawing 11]
[9]
  Activity against STEME: 90%

## Cc1nnc(NC(=O)c2ccc(C(F)(F)F)c([S+](C)[O-])c2Cl)o1 (stereo not drawn) [drawing 57]
[3]
  Activity against VERPE: 80%

## CCc1nnc(NC(=O)c2ccc(S(=O)(=O)CC)c(C3=NOC(COC)C3)c2Cl)o1 (stereo not drawn) [drawing 38]
[1]; dosage 320 g/ha
  Activity against ABUTH: 10%
[6]; dosage 320 g/ha
  Activity against ALOMY: 10%
[7]; dosage 320 g/ha
  Activity against CYPES: 80%

## Cc1nnc([N-]C(=O)c2ccc(C(F)(F)F)c(S(C)(=O)=O)c2C)o1.[K+] [drawing 47]
[5]
  Activity against AMARE: 60%
[10]
  Damage to ZEAMX: 0%

## Cc1nnc(NC(=O)c2ccc(C(F)(F)F)c([S+](C)[O-])c2Cl)o1 (stereo not drawn) [drawing 32]
[1]; [12]
  Activity against ABUTH: 60%
[6]; dosage 20 g/ha
  Activity against ALOMY: 20%
[7]; dosage 20 g/ha
  Activity against CYPES: 60%

## Cc1nnc([N-]C(=O)c2ccc(C(F)(F)F)c(S(C)(=O)=O)c2C)o1.[K+] [drawing 9]
[11]
  Damage to TRZAS: 0%
[9]
  Activity against STEME: 90%

## Cc1nnc([N-]C(=O)c2ccc(C(F)(F)F)c(S(C)(=O)=O)c2C)o1.[Na+] [drawing 25]
[6]; dosage 20 g/ha
  Activity against ALOMY: 60%
[7]; dosage 20 g/ha
  Activity against CYPES: 40%
[8]; dosage 20 g/ha
  Damage to ZEAMX: 0%

## Cc1nnc(NC(=O)c2ccc(C(F)(F)F)c(S(C)(=O)=O)c2C)o1 [drawing 53]
[2]
  Activity against ALOMY: 80%
[3]
  Activity against VERPE: 90%

## Cc1nnc(NC(=O)c2ccc(C(F)(F)F)c(S(C)(=O)=O)c2C)o1 [drawing 24]
[1]; [12]
  Activity against ABUTH: 70%
[6]; dosage 20 g/ha
  Activity against ALOMY: 20%
[7]; dosage 20 g/ha
  Activity against CYPES: 40%

## Cc1nnc(NC(=O)c2ccc(C(F)(F)F)c(S(C)(=O)=O)c2C)o1 [drawing 45]
[5]
  Activity against AMARE: 100%

## Cc1nnc(NC(=O)c2ccc(C(F)(F)F)c(S(C)(=O)=O)c2C)o1 [drawing 28]
[1]; [12]
  Activity against ABUTH: 70%
[6]; dosage 20 g/ha
  Activity against ALOMY: 20%
[7]; dosage 20 g/ha
  Activity against CYPES: 40%

## Cc1nnc(NC(=O)c2ccc(C(F)(F)F)c(S(C)(=O)=O)c2C)o1 [drawing 43]
[5]
  Activity against AMARE: 100%

## Cc1nnc(NC(=O)c2ccc(C(F)(F)F)c(S(C)(=O)=O)c2C)o1 [drawing 41]
[5]
  Activity against AMARE: 100%

## Cc1nnc([N-]C(=O)c2ccc(C(F)(F)F)c(S(C)(=O)=O)c2C)o1.[Na+] [drawing 7]
[1]; [12]
  Activity against ABUTH: 100%
[11]
  Damage to TRZAS: 0%
